pIC50: −log10 of the molar value.
The molecules below were run against T1, recombinant human G9a protein (Homo sapiens, UniProt Q96KQ7) (assay: G9a inhibitory activity test (ALPHA)). Settings: biotinylated histone H3 peptide (1-21), SAM, read-out: Inhibitory activity (G9a IC50 value).
T1 construct: purchased BPS Bioscience Inc. #51001
T1 sequence (Q96KQ7 785-1210 limits assumed): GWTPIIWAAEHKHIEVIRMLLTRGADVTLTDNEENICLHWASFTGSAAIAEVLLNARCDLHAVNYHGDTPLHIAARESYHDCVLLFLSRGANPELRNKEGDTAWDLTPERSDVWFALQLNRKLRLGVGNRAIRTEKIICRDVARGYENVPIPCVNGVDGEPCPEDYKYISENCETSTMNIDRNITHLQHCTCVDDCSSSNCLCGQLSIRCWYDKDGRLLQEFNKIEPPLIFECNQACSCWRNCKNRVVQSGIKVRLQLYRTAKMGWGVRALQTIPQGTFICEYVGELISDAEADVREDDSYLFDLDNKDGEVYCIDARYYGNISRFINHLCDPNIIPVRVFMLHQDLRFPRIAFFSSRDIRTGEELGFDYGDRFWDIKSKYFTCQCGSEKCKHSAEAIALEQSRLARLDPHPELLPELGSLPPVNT
Assay type: biochemical
Method in brief: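 Human G9a (0.05 to 0.1 nM) in Tris pH 9.0 buffer preincubated with compound 10 min, then biotinylated histone H3 (1-21) peptide and SAM mixed 1:1 from 500 nM and 150 μM solutions, 1 h at room temperature. H3K9me2 detected by AlphaLISA acceptor/streptavidin donor beads; IC50 from percent inhibition relative to no-compound and no-enzyme controls.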
For CCCCC(NC(=O)c1[nH]c2c(c1C)C(=O)CC(C)(C)C2)C(=O)Nc1ccc(N2CCN(C)CC2)cc1 (stereo not drawn) [Example 1-103], the pIC50 was ≤ 6.70. CCCCC(NC(=O)c1[nH]c2c(c1C)C(=O)CC(C)(C)C2)C(=O)Nc1ccc2[nH]cc(CN(C)C)c2c1 (stereo not drawn) [Example 1-100] was tested, and the pIC50 was > 7.30. For CCOc1ccc(NC(=O)C(CCC2CC2)NC(=O)c2[nH]c3c(c2C)C(=O)CC(C)(C)C3)cn1 (stereo not drawn) [Example 1-58], the pIC50 was ≤ 6.70. With CCCCC(NC(=O)c1[nH]c2c(c1C)C(=O)CC(C)(C)C2)C(=O)NCc1ccccc1O (stereo not drawn) [Example 1-29] the pIC50 was ≤ 6.70. With CCCCC(NC(=O)c1[nH]c2c(c1C)C(=O)CC(C)(C)C2)C(=O)Nc1ccc(C)cc1OC (stereo not drawn) [Example 1-37] the pIC50 was ≤ 6.70. CCCCC(NC(=O)c1[nH]c2c(c1C)C(=O)CC(C)(C)C2)C(=O)Nc1cccc(Cl)c1C (stereo not drawn) [Example 1-30] was tested, and the pIC50 was ≤ 6.70.

Same assay, conditions: read-out: Inhibitory activity (G9a IC50)
In the case of CCc1c(C(=O)NC(CCC2CC2)C(=O)Nc2ccc(C)nc2)[nH]c2c1C(=O)CC(C)(C)C2 (stereo not drawn) [Example 6-11], the pIC50 was 6.70 to 7.30. For Cc1c(C(=O)NC(CCC(C)C)C(=O)Nc2ccccc2)[nH]c2c1C(=O)CC(C)(C)C2 (stereo not drawn) [Example 6-25], the pIC50 was ≤ 6.70. Molecule CCCCC(NC(=O)c1[nH]c2c(c1C)C(=O)CC(C)(C)C2)C(=O)Nc1ccc(OC2CNC2)cc1 (stereo not drawn) [Example 26-6] has a pIC50 of 6.70 to 7.30. CCCCC(NC(=O)c1[nH]c2ccc(OC)cc2c1C)C(=O)Nc1ccc(OC2CCN(C)CC2)nc1 (stereo not drawn) [Example 6-93] was tested, and the pIC50 was ≤ 6.70. CCCCC(NC(=O)c1sc(-c2ccccc2)nc1C(F)(F)F)C(=O)Nc1ccc(OC2CCN(C)CC2)nc1 (stereo not drawn) [Example 11-3] showed a pIC50 of 6.70 to 7.30. For CCc1cc(C)ccc1NC(=O)C(CCC1CC1)NC(=O)c1[nH]c2c(c1C)C(=O)CC(C)(C)C2 (stereo not drawn) [Example 14-1, N-[4-cyclopropyl-1-(2-ethyl-4-methylamino)-1-oxobutan-2-yl]-3,6,6-trimethyl-4-oxo-5,7-dihydro-1H-indole-2-carboxamide], the pIC50 was > 7.30. In the case of Cc1cc(Nc2ccncc2)ccc1C(=O)NC(CCC1CC1)C(=O)Nc1ccc(C#N)nc1 (stereo not drawn) [Example 6-84], the pIC50 was > 7.30. CCCC[C@H](NC(=O)c1[nH]c2c(c1C)C(=O)CC(C)(C)C2)C(=O)Nc1ccc(OC2CCN(C)CC2)nc1 [Example 6-31] was tested, and the pIC50 was > 7.30. For Cc1c(C(=O)NC(CCC2CC2)c2nc3c(CN(C)C4CCN(C)CC4)cccc3n2C)[nH]c2c1C(=O)CC(C)(C)C2 (stereo not drawn) [Example 31-7], the pIC50 was ≤ 6.70. With Cc1c(C(=O)NC(CCC2CC2)C(=O)N2CCc3c(OCCCN(C)C)cccc32)[nH]c2c1C(=O)CC(C)(C)C2 (stereo not drawn) [Example 1-119] the pIC50 was ≤ 6.70. With COc1ccc(NC(=O)C(CCC2CC2)NC(=O)c2ccc(NCCN(C)C)cc2)cn1 (stereo not drawn) [Example 6-66] the pIC50 was ≤ 6.70. In the case of Cc1c(C(=O)NC(CCC2CC2)C(=O)Nc2ccc(Cl)nc2)[nH]c2c1C(=O)CC(C)(C)C2 (stereo not drawn) [Example 6-7], the pIC50 was ≤ 6.70. With COc1ccc(NC(=O)C(CCC2CC2)NC(=O)Cc2cccc3ccccc23)cn1 (stereo not drawn) [Example 6-53] the pIC50 was ≤ 6.70. CCCC[C@H](NC(=O)c1[nH]c2c(c1C)C(=O)CC(C)(C)C2)C(=O)NCc1ccc(N2CCN(CC)CC2)cc1 [Example 22-3] was tested, and the pIC50 was ≤ 6.70. Cc1c(C(=O)NC(CCC2CC2)C(=O)N2CCc3cc(OCCN(C)C)ccc32)[nH]c2c1C(=O)CC(C)(C)C2 (stereo not drawn) [Example 1-134] showed a pIC50 of 6.70 to 7.30. Molecule Cc1ccncc1NC(=O)C(CCC1CC1)NC(=O)c1[nH]c2c(c1C)C(=O)CC(C)(C)C2 (stereo not drawn) [Example 6-4] has a pIC50 of 6.70 to 7.30. With CCCC[C@H](NC(=O)c1[nH]c2c(c1C)C(=O)CC(C)(C)C2)C(=O)Nc1ccc(OC2CNC2)nc1 [Example 26-2] the pIC50 was > 7.30. Cc1c(C(=O)NC(CCC2CC2)C(=O)N2CCc3cc(OCCN(C)C)ccc3C2)[nH]c2c1C(=O)CC(C)(C)C2 (stereo not drawn) [Example 1-140] was tested, and the pIC50 was ≤ 6.70. With COc1ccc(NC(=O)C(CCC2CC2)NC(=O)c2ccc(Nc3ccnc(OC)c3)cc2)cn1 (stereo not drawn) [Example 6-64] the pIC50 was ≤ 6.70. CCCCC(NC(=O)c1sc(-c2ccccc2)nc1C)C(=O)Nc1ccc(OC2CCN(C)CC2)nc1 (stereo not drawn) [Example 11-10] was tested, and the pIC50 was ≤ 6.70. CCCCC(NC(=O)c1[nH]c2c(c1C)C(=O)CC(C)(C)C2)C(=O)NCc1cccc(CN(C)CCN(C)C)n1 (stereo not drawn) [Example 6-3] showed a pIC50 of 6.70 to 7.30.

From patent US20230127046A1, “G9a INHIBITOR” (RIKEN, priority 2019, published 2023)
